Measured values from patent US20080182859A1 (Curis, Inc., priority 2006, published 2008).
pEC50: −log10 of the molar value. Where a name gives a salt, the structure may show the parent alone.

Key:
Format in all cases: cell-based
[1] = test system: sonic hedgehog pathway; experiment: Human hedgehog reporter assay HEPM-GliLuc (HGL); details: HepM human embryonic palatal mesenchymal cells, Gli-luciferase reporter
Excerpt: (§1) Mouse (TM3: mouse Leydig cells; S12: mouse embryonic mesenchymal cells) and human (Daoy: human medulloblastoma cell; HepM: human embryonic palatal mesenchymal cell) cell lines are used to screen small molecules for their ability to modulate the activity of the sonic hedgehog pathway (Table 1, Table 2, and Table 3). Stable hedgehog pathway reporter cell lines are established by specific antibiotic selection following transfection of a reporter plasmid containing a luciferase gene located directly downstream from the gli promoter. Consequently, any observable changes in cellular luciferase activity may be attributed to changes in sonic hedgehog pathway activity in mouse and human cells, respectively, since gli is the major by-product of this pathway. To calculate activity, we generate an eleven point dose curve for each compound using 1:3 dilutions in 96 well assay plates. Each plate tested also contains low and high control to establish maximal pathway activation so to establish/compare a percentage activation of each tested compound (AMAX) on respective plates. Also we calculate EC50 values, or a concentration where the pathway will be exactly 50% activated, for each tested compound to determine potency. In these cell lines, compounds that register >20% AMAX values are considered active.
(§2) Stable hedgehog pathway reporter cell lines are established following specific antibiotic selection following transfection of a reporter plasmid In short, typically cells are plated in MicroTiter-plates at 10,000-20,000 cells per well, in growth media (containing 10%-20% FBS). After 48-72 hrs (HGL and DGL respectively) the media in the assay plates is switched to low-serum containing media (0.5% FBS). At that time compounds are added (at 1-5 μM) to the assay plates, in the presence or absence of hedgehog protein (octyl-modified version; 1-5 ng/ml). After another 24 hrs of incubation, the media from the assay plates is discarded and replaced with luciferase assay-mix. Subsequently, plates are incubated at RT for ˜15-30 mins and then read in a luminometer. [note: addition of the Hedgehog protein, although not critical, will sensitize the assay allowing the identification of weak actives].

[2] = test system: sonic hedgehog pathway; experiment: Hedgehog pathway Gli-luciferase reporter assay, TM3 cells; details: TM3 mouse Leydig cells
Excerpt: as §1, §2

[3] = test system: sonic hedgehog pathway; experiment: Human hedgehog reporter assay Daoy-GliLuc (DGL); details: Daoy human medulloblastoma cells, Gli-luciferase reporter; read-out: Daoy Avg. EC50
Excerpt: as §1, §2

Structure (SMILES) | pEC50 [1] | pEC50 [2] | pEC50 [3]
CN[C@H]1CC[C@@H](N(Cc2cc(-c3cncnc3)ccc2OC)C(=O)c2sc3ccccc3c2Cl)CC1 [324 (R20)] | 6.60 to 7.30 | 6.60 to 7.30 | > 7.30
CN[C@H]1CC[C@@H](N(Cc2cc(-c3cnccn3)ccc2OC)C(=O)c2sc3ccccc3c2Cl)CC1 [330 (R22)] | 6.60 to 7.30 | 6.60 to 7.30 | > 7.30
CN[C@H]1CC[C@@H](N(Cc2cc(-c3cncnc3)ccc2OC)C(=O)c2sc3c(F)ccc(F)c3c2Cl)CC1 [343 (R15)] | > 7.30 | > 7.30 | > 7.30
CN[C@H]1CC[C@@H](N(Cc2cc(-c3cnccn3)ccc2OC)C(=O)c2sc3c(F)ccc(F)c3c2Cl)CC1 [344 (R14)] | > 7.30 | > 7.30 | > 7.30
CN[C@H]1CC[C@@H](N(Cc2cc(-c3ccc(N)nc3)ccc2OC)C(=O)c2sc3c(F)ccc(F)c3c2Cl)CC1 [352 (R18)] | > 7.30 | > 7.30 | > 7.30
CNC(=O)c1cc(-c2ccc(OC)c(CN(C(=O)c3sc4c(F)ccc(F)c4c3Cl)[C@H]3CC[C@@H](NC)CC3)c2)ccn1 [356 (R16)] | > 7.30 | > 7.30 | > 7.30
CNC(=O)c1cc(-c2ccc(OC)c(CN(C(=O)c3sc4c(F)ccc(F)c4c3Cl)[C@H]3CC[C@H](NC)CC3)c2)ccn1 [356 (R21), 4-(3-{[(3-Chloro-4,7-difluoro-benzo[b]thiophene-2-carbonyl)-(4-methylamino-cyclohexyl)-amino]-methyl}-4-methoxy-phenyl)-pyridine-2-carboxylic acid methylamide dihydrochloride] | > 7.30 | > 7.30 | > 7.30
CN[C@H]1CC[C@@H](N(Cc2cc(-c3ccc(C#N)cc3)ccc2OC)C(=O)c2sc3ccccc3c2Cl)CC1 [Compound 301, 3-Chloro-benzo[b]thiophene-2-carboxylic acid (4′-cyano-4-methoxy-biphenyl-3-ylmethyl)-(4-methylamino-cyclohexyl)-amide hydrochloride] | 6.60 to 7.30 | > 7.30 | > 7.30
CN[C@H]1CC[C@@H](N(Cc2cc(-c3ccc(C(=O)C(F)(F)F)cc3)ccc2OC)C(=O)c2sc3ccccc3c2Cl)CC1 [Compound 302, 3-Chloro-benzo[b]thiophene-2-carboxylic acid [4-methoxy-4′-(2,2,2-trifluoro-acetyl)-biphenyl-3-ylmethyl]-(4-methylamino-cyclohexyl)-amide trifluoroacetate] | > 7.30 | > 7.30 | > 7.30
CN[C@H]1CC[C@@H](N(Cc2cc(-c3cccc(C#N)c3)ccc2OC)C(=O)c2sc3ccccc3c2Cl)CC1 [Compound 304, 3-Chloro-benzo[b]thiophene-2-carboxylic acid (3′-cyano-4-methoxy-biphenyl-3-ylmethyl)-(4-methylamino-cyclohexyl)-amide hydrochloride] | > 7.30 | > 7.30 | > 7.30
CN[C@H]1CC[C@@H](N(Cc2cc(-c3ccc(OC)cc3)ccc2OC)C(=O)c2sc3ccccc3c2Cl)CC1 [Compound 305, 3-Chloro-benzo[b]thiophene-2-carboxylic acid (4,4′-dimethoxy-biphenyl-3-ylmethyl)-(4-methylamino-cyclohexyl)-amide hydrochloride] | 6.00 to 6.60 | > 7.30 | > 7.30
CCOc1ccc(-c2ccc(C(=O)C(F)(F)F)cc2)cc1CN(C(=O)c1sc2ccccc2c1Cl)[C@H]1CC[C@@H](NC)CC1 [Compound 310, 3-Chloro-benzo[b]thiophene-2-carboxylic acid [4-ethoxy-4′-(2,2,2-trifluoro-acetyl)-biphenyl-3-ylmethyl]-(4-methylamino-cyclohexyl)-amide hydrochloride] | > 7.30 | > 7.30 | > 7.30
CCOc1ccc(-c2ccc(C(C)=O)cc2)cc1CN(C(=O)c1sc2ccccc2c1Cl)[C@H]1CC[C@@H](NC)CC1 [Compound 311, 3-Chloro-benzo[b]thiophene-2-carboxylic acid (4′-acetyl-4-ethoxy-biphenyl-3-ylmethyl)-(4-methylamino-cyclohexyl)-amide hydrochloride] | 6.60 to 7.30 | > 7.30 | > 7.30
CN[C@H]1CC[C@@H](N(Cc2cc(-c3ccc(N(C)C=O)cc3)ccc2OC)C(=O)c2sc3ccccc3c2Cl)CC1 [Compound 315, 3-Chloro-benzo[b]thiophene-2-carboxylic acid [4′-(formyl-methyl-amino)-4-methoxy-biphenyl-3-ylmethyl]-(4-methylamino-cyclohexyl)-amide trifluoroacetate] | 6.00 to 6.60 | > 7.30 | 6.60 to 7.30
CN[C@H]1CC[C@@H](N(Cc2cc(-c3ccc(N(C)C(C)=O)cc3)ccc2OC)C(=O)c2sc3ccccc3c2Cl)CC1 [Compound 318, 3-Chloro-benzo[b]thiophene-2-carboxylic acid [4′-(acetyl-methyl-amino)-4-methoxy-biphenyl-3-ylmethyl]-(4-methylamino-cyclohexyl)-amide hydrochloride] | > 7.30 | > 7.30 | > 7.30
CCOc1ccc(-c2cnc(N)nc2)cc1CN(C(=O)c1sc2ccccc2c1Cl)[C@H]1CC[C@@H](NC)CC1 [Compound 325, 3-Chloro-benzo[b]thiophene-2-carboxylic acid [5-(2-amino-pyrimidin-5-yl)-2-ethoxy-benzyl]-(4-methylamino-cyclohexyl)-amide dihydrochloride] | 6.60 to 7.30 | 6.00 to 6.60 | > 7.30
CCOc1ccc(-c2cncnc2)cc1CN(C(=O)c1sc2ccccc2c1Cl)[C@H]1CC[C@@H](NC)CC1 [Compound 326, 3-Chloro-benzo[b]thiophene-2-carboxylic acid (2-ethoxy-5-pyrimidin-5-yl-benzyl)-(4-methylamino-cyclohexyl)-amide dihydrochloride] | 6.60 to 7.30 | 6.60 to 7.30 | > 7.30
CCOc1ccc(-c2cccc(C#N)c2)cc1CN(C(=O)c1sc2ccccc2c1Cl)[C@H]1CC[C@@H](NC)CC1 [Compound 328, 3-Chloro-benzo[b]thiophene-2-carboxylic acid (3′-cyano-4-ethoxy-biphenyl-3-ylmethyl)-(4-methylamino-cyclohexyl)-amide hydrochloride] | 6.60 to 7.30 | > 7.30 | > 7.30
CN[C@H]1CC[C@@H](N(Cc2cc(-c3ccc(CCl)cc3)ccc2OC)C(=O)c2sc3ccccc3c2Cl)CC1 [Compound 340, 3-Chloro-benzo[b]thiophene-2-carboxylic acid (4′-chloromethyl-4-methoxy-biphenyl-3-ylmethyl)-(4-methylamino-cyclohexyl)-amide hydrochloride] | > 7.30 | > 7.30 | > 7.30
CN[C@H]1CC[C@@H](N(Cc2cc(-c3ccnc(C)c3)ccc2OC)C(=O)c2sc3c(F)ccc(F)c3c2Cl)CC1 [Compound 345, 3-Chloro-4,7-difluoro-benzo[b]thiophene-2-carboxylic acid [2-methoxy-5-(2-methyl-pyridin-4-yl)-benzyl]-(4-methylamino-cyclohexyl)-amide dihydrochloride] | > 7.30 | > 7.30 | > 7.30
CN[C@H]1CC[C@@H](N(Cc2cc(-c3ccnc(C(=O)O)c3)ccc2OC)C(=O)c2sc3c(F)ccc(F)c3c2Cl)CC1 [Compound R6, 4-(3-{[(3-Chloro-4,7-difluoro-benzo[b]thiophene-2-carbonyl)-(4-methylamino-cyclohexyl)-amino]-methyl}-4-methoxy-phenyl)-pyridine-2-carboxylic acid bis(trifluoroacetate)] | 6.60 to 7.30 | 6.60 to 7.30 | 
CN[C@H]1CC[C@@H](N(Cc2cc(-c3ccc(S(C)(=O)=O)cc3)ccc2OC)C(=O)c2sc3ccccc3c2Cl)CC1 [Compound R7, 3-Chloro-benzo[b]thiophene-2-carboxylic acid (4′-methanesulfonyl-4-methoxy-biphenyl-3-ylmethyl)-(4-methylamino-cyclohexyl)-amide hydrochloride] | > 7.30 | > 7.30 | 
CN[C@H]1CC[C@@H](N(Cc2cc(-c3ccc(C(N)=O)cc3)ccc2OC)C(=O)c2sc3c(F)ccc(F)c3c2Cl)CC1 [Compound R8, 3-Chloro-4,7-difluoro-benzo[b]thiophene-2-carboxylic acid (4′-carbamoyl-4-methoxy-biphenyl-3-ylmethyl)-(4-methylamino-cyclohexyl)-amide hydrochloride] | > 7.30 | > 7.30 | 
